Patent publication US20210340120A1, “PESTICIDALLY ACTIVE AZOLE-AMIDE COMPOUNDS” (SYNGENTA PARTICIPATIONS AG, priority 2018, published 2021)

Experiments:
Format in all cases: in vivo
Diabrotica balteata = assay: Example B1: Diabrotica balteata (corn root worm), maize sprouts sprayed, L2 larvae; conditions: 96 h, application rate 200 ppm, 4 days after infestation, read-out: control in at least one of the two categories (mortality or growth inhibition)
Procedure: Maize sprouts placed onto an agar layer in 24-well microtiter plates were treated with aqueous test solutions prepared from 10′000 ppm DMSO stock solutions by spraying. After drying, the plates were infested with L2 larvae (6 to 10 per well). The samples were assessed for mortality and growth inhibition in comparison to untreated samples 4 days after infestation.

Euschistus heros = assay: Example B2: Euschistus heros (neotropical brown stink bug), soybean leaves sprayed, N2 nymphs; conditions: 120 h, application rate 200 ppm, 5 days after infestation, read-out: control in at least one of the two categories (mortality or growth inhibition)
Procedure: Soybean leaves on agar in 24-well microtiter plates were sprayed with aqueous test solutions prepared from 10′000 ppm DMSO stock solutions. After drying the leaves were infested with N2 nymphs. The samples were assessed for mortality and growth inhibition in comparison to untreated samples 5 days after infestation.

Plutella xylostella = assay: Example B3: Plutella xylostella (diamond back moth), artificial diet, eggs; conditions: 192 h, application rate 200 ppm, 8 days after infestation, read-out: control in at least one of the two categories (mortality or growth inhibition)
Procedure: 24-well microtiter plates with artificial diet were treated with aqueous test solutions prepared from 10′000 ppm DMSO stock solutions by pipetting. After drying, Plutella eggs were pipetted through a plastic stencil onto a gel blotting paper and the plate was closed with it. The samples were assessed for mortality and growth inhibition in comparison to untreated samples 8 days after infestation. The following compounds gave an effect of at least 80% control in at least one of the two categories (mortality or growth inhibition) at an application rate of 200 ppm: P1, P2, P3, P4, P5, P6

Myzus persicae [1] = assay: Example B4: Myzus persicae (green peach aphid) feeding/contact activity, sunflower leaf discs; conditions: foliar, 144 h, application rate 200 ppm, 6 days after infestation, mixed ages
Procedure: (§1) Sunflower leaf discs were placed onto agar in a 24-well microtiter plate and sprayed with aqueous test solutions prepared from 10′000 ppm DMSO stock solutions. After drying, the leaf discs were infested with an aphid population of mixed ages. The samples were assessed for mortality 6 days after infestation.

Spodoptera littoralis = assay: Example B6: Spodoptera littoralis (Egyptian cotton leaf worm), cotton leaf discs, L1 larvae; conditions: foliar, 72 h, application rate 200 ppm, 3 days after infestation, read-out: control in at least one of the categories (mortality, anti-feedant effect, or growth inhibition)
Procedure: Cotton leaf discs were placed onto agar in 24-well microtiter plates and sprayed with aqueous test solutions prepared from 10′000 ppm DMSO stock solutions. After drying the leaf discs were infested with five L1 larvae. The samples were assessed for mortality, anti-feeding effect, and growth inhibition in comparison to untreated samples 3 days after infestation. Control of Spodoptera littoralis by a test sample is given when at least one of the categories mortality, anti-feedant effect, and growth inhibition is higher than the untreated sample.

Tetranychus urticae = assay: Example B7: Tetranychus urticae (two-spotted spider mite) feeding/contact activity, bean leaf discs; conditions: foliar, 192 h
Procedure: Bean leaf discs on agar in 24-well microtiter plates were sprayed with aqueous test solutions prepared from 10′000 ppm DMSO stock solutions. After drying the leaf discs were infested with a mite population of mixed ages. The samples were assessed for mortality on mixed population (mobile stages) 8 days after infestation.

Myzus persicae [2] = assay: Example B5: Myzus persicae (green peach aphid) intrinsic activity, sucrose solution, 24-well; conditions: 120 h, test rate 12 ppm, 5 days after infestation
Procedure: Test compounds prepared from 10′000 ppm DMSO stock solutions were applied by pipette into 24-well microtiter plates and mixed with sucrose solution. The plates were closed with a stretched Parafilm. A plastic stencil with 24 holes was placed onto the plate and infested pea seedlings were placed directly on the Parafilm. The infested plate was closed with a gel blotting paper and another plastic stencil and then turned upside down. The samples were assessed for mortality 5 days after infestation.

Chilo suppressalis = assay: Example B9: Chilo suppressalis (striped rice stemborer), artificial diet, L2 larvae; conditions: 144 h, application rate 200 ppm, 6 days after infestation, read-out: control in at least one of the three categories (mortality, anti-feedant effect or growth inhibition)
Procedure: 24-well microtiter plates with artificial diet were treated with aqueous test solutions prepared from 10′000 ppm DMSO stock solutions by pipetting. After drying, the plates were infested with L2 larvae (6-8 per well). The samples were assessed for mortality, anti-feeding effect, and growth inhibition in comparison to untreated samples 6 days after infestation. Control of Chilo suppressalis by a test sample is given when at least one of the categories mortality, anti-feedant effect, and growth inhibition is higher than the untreated sample.

Thrips tabaci = assay: Example B8: Thrips tabaci (onion thrips) feeding/contact activity, sunflower leaf discs; conditions: foliar, 144 h, application rate 200 ppm, 6 days after infestation, mixed ages
Procedure: as §1, with “on” for “onto”, “in” for “in a”, “plates” for “plate”, “drying” for “drying,”, “a thrips” for “an aphid”

Myzus persicae [3] = assay: Example B10: Myzus persicae (green peach aphid), sucrose solution, 96-well; conditions: 120 h, application rate 50 ppm, 5 days after infestation
Procedure: Test compounds prepared from 10′000 ppm DMSO stock solutions were applied by a liquid handling robot into 96-well microtiter plates and mixed with a sucrose solution. Parafilm was stretched over the 96-well microtiter plate and a plastic stencil with 96 holes was placed onto the plate. Aphids were sieved into the wells directly onto the Parafilm. The infested plates were closed with a gel blotting card and a second plastic stencil and then turned upside down. The samples were assessed for mortality 5 days after infestation.

CC(c1ncnn1-c1ccc(F)cn1)N(CC1CC1)C(=O)c1cc(C(F)(F)F)cc(C(F)(F)F)c1 (stereo not shown) [Compound P5, N-(cyclopropylmethyl)-N-[1-[2-(5-fluoro-2-pyridyl)-1,2,4-triazol-3-yl]ethyl]-3,5-bis(trifluoromethyl)benzamide]
≥ 80%: percent control (mortality or growth inhibition) at 200 ppm (Diabrotica balteata) | percent control (mortality or growth inhibition) at 200 ppm (Euschistus heros) | percent control (mortality or growth inhibition) at 200 ppm (Plutella xylostella) | mortality at 200 ppm (Myzus persicae [1]) | percent control (mortality, anti-feedant effect or growth inhibition) at 200 ppm (Spodoptera littoralis) | mortality at 200 ppm (Tetranychus urticae)

CC(NC(=O)c1cc(C(F)(F)F)cc(C(F)(F)F)c1)c1ncnn1-c1ccc(F)cn1 (stereo not shown) [Compound P3, N-[1-[2-(5-fluoro-2-pyridyl)-1,2,4-triazol-3-yl]ethyl]-3,5-bis(trifluoromethyl)benzamide]
≥ 80%: percent control (mortality or growth inhibition) at 200 ppm (Diabrotica balteata) | percent control (mortality or growth inhibition) at 200 ppm (Euschistus heros) | percent control (mortality or growth inhibition) at 200 ppm (Plutella xylostella) | mortality at 12 ppm (Myzus persicae [2]) | percent control (mortality, anti-feedant effect or growth inhibition) at 200 ppm (Spodoptera littoralis) | mortality at 200 ppm (Tetranychus urticae)

CC(NC(=O)c1cc(C(F)(F)F)cc(C(F)(F)F)c1)c1ncnn1-c1ccc(Cl)cn1 (stereo not shown) [Compound P1, N-[1-[2-(5-chloro-2-pyridyl)-1,2,4-triazol-3-yl]ethyl]-3,5-bis(trifluoromethyl)benzamide]
≥ 80%: percent control (mortality or growth inhibition) at 200 ppm (Diabrotica balteata) | percent control (mortality or growth inhibition) at 200 ppm (Euschistus heros) | percent control (mortality or growth inhibition) at 200 ppm (Plutella xylostella) | percent control (mortality, anti-feedant effect or growth inhibition) at 200 ppm (Spodoptera littoralis) | percent control (mortality, anti-feedant effect or growth inhibition) at 200 ppm (Chilo suppressalis)

CC(NC(=O)c1cc(C(F)(F)F)cc(C(F)(F)F)c1)c1ncnn1-c1ncccc1F (stereo not shown) [Compound P4, N-[1-[2-(3-fluoro-2-pyridyl)-1,2,4-triazol-3-yl]ethyl]-3,5-bis(trifluoromethyl)benzamide]
≥ 80%: percent control (mortality or growth inhibition) at 200 ppm (Diabrotica balteata) | percent control (mortality or growth inhibition) at 200 ppm (Euschistus heros) | percent control (mortality or growth inhibition) at 200 ppm (Plutella xylostella) | percent control (mortality, anti-feedant effect or growth inhibition) at 200 ppm (Spodoptera littoralis) | mortality at 200 ppm (Thrips tabaci) | mortality at 50 ppm (Myzus persicae [3])

CC(c1ncnn1-c1ncccc1F)N(CC1CC1)C(=O)c1cc(C(F)(F)F)cc(C(F)(F)F)c1 (stereo not shown) [Compound P2, N-(cyclopropylmethyl)-N-[1-[2-(3-fluoro-2-pyridyl)-1,2,4-triazol-3-yl]ethyl]-3,5-bis(trifluoromethyl)benzamide]
≥ 80%: percent control (mortality or growth inhibition) at 200 ppm (Diabrotica balteata) | percent control (mortality or growth inhibition) at 200 ppm (Plutella xylostella) | percent control (mortality, anti-feedant effect or growth inhibition) at 200 ppm (Spodoptera littoralis)

CC(NC(=O)c1cc(C(F)(F)F)cc(C(F)(F)F)c1)c1ncnn1-c1cccc(F)n1 (stereo not shown) [Compound P6, N-[1-[2-(6-fluoro-2-pyridyl)-1,2,4-triazol-3-yl]ethyl]-3,5-bis(trifluoromethyl)benzamide]
≥ 80%: percent control (mortality or growth inhibition) at 200 ppm (Plutella xylostella) | percent control (mortality, anti-feedant effect or growth inhibition) at 200 ppm (Chilo suppressalis)
